Data: patent US20250177579A1, “NOVEL COMPOUND, a-SYNUCLEIN AGGREGATE BINDER, AND USE THEREOF” (NATIONAL INSTITUTES FOR QUANTUM SCIENCE AND TECHNOLOGY, priority 2022, published 2025)

What was measured:
α-synuclein lesions = molecular target: T1, α-synuclein lesions (Mus musculus, UniProt O55042); experiment: In vivo two-photon laser scanning fluorescence microscopy of α-synuclein fibril-inoculated mouse; conditions: 50 μl of 0.1% DMSO solution, imaging 30 minutes after administration, FIG. 4; for binding to α-synuclein lesions in vivo: excitation 900 nm
T1 construct: from tissue; host or cells: brain of a C57/BL/6 mouse inoculated in the striatum with recombinant mouse α-synuclein fibrils (made in E. coli)
Experimental: First, mouse α-synuclein was expressed in and extracted from E. coli as a recombinant protein, and then incubated in vitro to form insoluble α-synuclein aggregates. The α-synuclein aggregates were then inoculated into the striatum of a mouse. […] Note that the inoculation of the α-synuclein aggregates into the striatum of the mouse was carried out in the following manner. First, hair on the head of a 9-week-old C57/BL/6 male mouse which had been anesthetized with 1.5% (v/v) isoflurane was removed, and the scalp was disinfected with isodine, followed by application of xylocaine and incision in the scalp to expose the skull. Then, a hole was drilled in the skull at a position of 0.05 mm posterior to the bregma and 2 mm lateral to the midline, and 3 μl of an α-synuclein fibril solution (mouse α-synuclein fibril (4 mg/ml) in saline) was injected into a position 2 mm ventral to the brain surface with use of a glass pipette. The scalp was then returned and sutured.
A model mouse was anesthetized with 1.5% (v/v) isoflurane 4 or more months after inoculation of an α-synuclein fibril solution. Then, a cranial window was placed on the model mouse in accordance with the Seylaz-Tomita method (Tomita et al. J Cereb Blood Flow Metab 25, 858-67, 2005). Two or more weeks after the placement of the cranial window, the mouse was fixed under a two-photon laser fluorescence microscope, 100 μl of physiological saline containing 5 mmol/1 Sulforhodamine 101 was intraperitoneally administered to the mouse, and then intravital two-photon fluorescence imaging was carried out at an excitation wavelength of 900 nm. Thereafter, 50 μl of DMSO solution containing C05-05, SPAL-T-83, SPAL-T-95, or SPAL-E-17 at a 0.1% concentration was intraperitoneally administered to the mouse. Thirty minutes after the administration, intravital two-photon fluorescence imaging was carried out at an excitation wavelength of 900 nm. Detection wavelengths for C05-05, SPAL-T-83, SPAL-T-95, and SPAL-E-17 were set at 500 nm to 550 nm, and a detection wavelength for Sulforhodamine 101 was set at 573 nm to 648 nm. In FIG. 4, each arrow indicates a blood vessel, and each arrowhead indicates fluorescence from the compound binding to an α-synuclein lesion.

α-synuclein aggregates [1] = molecular target: T2, α-synuclein aggregates (Homo sapiens, UniProt P37840); conditions: background art, cited from earlier work
[2] = test system: tau aggregates or amyloid-β aggregates; experiment: In vitro fluorescence microscope measurement, AD patient brain sections compared with DLB sections; assay type: binding, human; conditions: for binding to α-synuclein aggregates compared with binding to tau aggregates or amyloid-β aggregates formed in the brain of the AD patient: 30 μmol/l test compound, DLB amygdala vs AD superior temporal gyrus sections; for ratio of binding to α-synuclein aggregates to binding to tau aggregates or amyloid-β aggregates, compared with the ratio of C05-05: 30 μmol/l, fluorescence intensity quantified, FIG. 2, comparator C05-05
Description: (§1) Postmortem human brains were obtained in autopsies carried out with respect to a patient with dementia with Lewy bodies (DLB) and a patient with Alzheimer's disease (AD). In a cryostat (HM560, Carl Zeiss), frozen tissue from the DLB patient was sliced into sections each having a thickness of 20 μm. Brain tissue from the AD patient was fixed in 10% neutral buffered formalin, embedded in a paraffin block, and sliced into sections each having a thickness of 6 μm.
(§2) Each brain section and a 30 μmol/l test compound were incubated in a 50% ethanol solution at room temperature for 30 minutes. Subsequently, the sections were rinsed with 50% ethanol for 5 minutes and dipped into double-distilled water twice for 3 minutes each. After the section was mounted in a mounting medium (VECTASHIELD H-1000, Vector Laboratories), an image of a lesion-enriched area on the section was obtained with use of a fluorescence microscope (DM4000, Leica). In FIG. 1, each arrowhead indicates fluorescence from the compound binding to α-synuclein aggregates in the brain of the DLB patient, each arrow indicates fluorescence from the compound binding to amyloid-β aggregates in the brain of the AD patient, and an asterisk indicates fluorescence from the compound binding to tau aggregates in the brain of the AD patient. The fluorescence intensities of lesion-enriched areas and lesion-free areas (background) were quantified with use of analysis software (Image J). Note that SPAL-T-83, SPAL-T-95, and SPAL-E-17 were each used as the test compound. Note also that ((E)-1-fluoro-3-(2-(4-(6-(methylamino)pyridin-3-yl)but-1-en-3-ynyl)benzo[d]thiazol-6-yloxy)propan-2-ol (C05-05) synthesized by the method disclosed in Synthetic Example 21 of Patent Literature 2 (International Publication No. WO 2020/174963) listed above was used as a control compound.

[3] = molecular target: T3, phosphorylated α-synuclein (Mus musculus, UniProt O55042); experiment: In vitro fluorescence microscope measurement, brain sections of α-synuclein fibril-inoculated mouse; assay type: binding; conditions: 30 μmol/l test compound, 20% ethanol, co-stained with pS129 antibody, FIG. 3
T3 construct: from tissue; host or cells: brain of a C57/BL/6 mouse inoculated in the striatum with recombinant mouse α-synuclein fibrils (made in E. coli)
Experimental: When mouse α-synuclein is expressed in and extracted from E. coli as a recombinant protein and then incubated in vitro, insoluble α-synuclein aggregates are formed. By inoculating these α-synuclein aggregates into the striatum of a mouse, the α-synuclein aggregates propagate to surrounding areas via the neural circuitry, and an α-synuclein lesion is observed in the cerebral neocortex several months later (Masuda-Suzukake et al. Acta Neuropathol Commun 2, 88, 2014; Shimozawa et al. Acta Neuropathol Commun 5, 12, 2017). By extracting the brain of this mouse, preparing a section, and then analyzing the section by fluorescent staining, it is possible to examine whether the compound in accordance with an embodiment of the present invention binds to a lesion caused by phosphorylated α-synuclein.
First, mouse α-synuclein was expressed in and extracted from E. coli as a recombinant protein, and then incubated in vitro to form insoluble α-synuclein aggregates. The α-synuclein aggregates were then inoculated into the striatum of a mouse. […] Note that the inoculation of the α-synuclein aggregates into the striatum of the mouse was carried out in the following manner. […]
The brain of this α-synuclein fibril-inoculated mouse was extracted, and then sections were prepared. The sections were analyzed by fluorescent staining. […] After the section was mounted in a mounting medium (VECTASHIELD H-1000), an image of an α-synuclein aggregate-enriched area on the section was obtained with use of a fluorescence microscope (DM4000). […] After the section was subjected to immunohistochemical staining with use of an anti-phosphorylated α-synuclein monoclonal antibody (pS129, abcam, ab59264) (1:1000) and then mounted in a mounting medium (VECTASHIELD H-1000), an image of the same area as above was obtained with use of a fluorescence microscope (DM4000). […] In FIG. 3, each arrowhead indicates a lesion, caused by phosphorylated α-synuclein, in the brain of the α-synuclein fibril-inoculated mouse and fluorescence from the compound binding to the phosphorylated α-synuclein.

α-synuclein aggregates [4] = molecular target: T2, α-synuclein aggregates; experiment: In vitro fluorescence microscope measurement, DLB patient brain sections; assay type: binding; set-up: from tissue; host or cells: amygdala sections of a DLB patient's postmortem brain; conditions: 30 μmol/l test compound, 50% ethanol, amygdala sections of DLB patient, FIGS. 1 and 2
Description: as §1, §2

Compound	delivery into the brain and neurons of the living body (α-synuclein lesions)	binding to α-synuclein lesions in vivo (α-synuclein lesions)	binding selectivity with respect to the α-synuclein aggregates (α-synuclein aggregates [1]; binds to amyloid-β aggregates)	binding affinity with respect to the α-synuclein aggregates (α-synuclein aggregates [1])	binding to α-synuclein aggregates compared with binding to tau aggregates or amyloid-β aggregates formed in the brain of the AD patient [2]	ratio of binding to α-synuclein aggregates to binding to tau aggregates or amyloid-β aggregates, compared with the ratio of C05-05 [2]	binding to a lesion caused by phosphorylated α-synuclein [3]	binding to α-synuclein aggregates formed in the brain of the DLB patient (fluorescence) (α-synuclein aggregates [4])
CNc1ccc(C#C/C=C/c2nc3ccc(OCC(O)CF)cc3s2)cn1 (stereo not shown) [Compound C05-05, reference compound]	delivered into the brain and further into neurons of the living body	bound to α-synuclein lesions	–	–	–	–	–	–
CN([11CH3])c1ncc(/C=C/c2nc3ccc(OCCF)cc3o2)s1 [[^11C]BF-227]	–	–	low binding selectivity	insufficient binding affinity	–	–	–	–
CNc1cnc(C#C/C=C/c2nc3ccc(OCC(O)CF)nc3s2)cn1 (stereo not shown) [SPAL-E-17, (E)-1-fluoro-3-((2-(4-(5-(methylamino)pyrazin-2-yl)but-1-en-3-yn-1-yl)thiazolo[5,4-b]pyridin-5-yl)oxy)propan-2-ol]	delivered into the brain and further into neurons of the living body	bound to α-synuclein lesions	–	–	greater	higher	bound to a lesion caused by phosphorylated α-synuclein	bound to α-synuclein aggregates
CNc1cnc(C#C/C=C/c2nc3ccc(NCC(O)CF)cc3s2)cn1 (stereo not shown) [SPAL-T-83, (E)-1-fluoro-3-((2-(4-(5-(methylamino)pyrazin-2-yl)but-1-en-3-yn-1-yl)benzo[d]thiazol-6-yl)amino)propan-2-ol]	delivered into the brain and further into neurons of the living body	bound to α-synuclein lesions	–	–	greater	higher	bound to a lesion caused by phosphorylated α-synuclein	bound to α-synuclein aggregates
CNc1ccc(C#C/C=C/c2nc3ccc(NCC(O)CF)cc3s2)cn1 (stereo not shown) [SPAL-T-95, (E)-1-fluoro-3-((2-(4-(6-(methylamino)pyridin-3-yl)but-1-en-3-yn-1-yl)benzo[d]thiazol-6-yl)amino)propan-2-ol]	delivered into the brain and further into neurons of the living body	bound to α-synuclein lesions	–	–	greater	higher	bound to a lesion caused by phosphorylated α-synuclein	bound to α-synuclein aggregates
